Reference: US9114158B2, “Compounds and methods of use in ablative radiotherapy” (The Johns Hopkins University, priority 2011, dated 2015)

Key:
A549 = experiment: MTS assay, lung cancer cell line A549; type: cell-based
Experimental: FIG. 5 is a plot showing the effect of RK-33 on two lung cancer cell lines. Lung cancer cell lines were incubated with different concentrations of RK-33. At day 3, MTS assays were performed to determine the percentage of metabolically active cells. The experiments were repeated in triplicate. The IC50 values for H23 and A549 are 3.5 and 5 μM respectively. […] Experiments were performed in triplicate. To study the effects of RK-33 on cell growth and proliferation, lung cancer cell lines (H23 and A549) were used for the initial studies. […] To the best of our knowledge, this is the first data set of evaluating the efficacy of a small molecule inhibitor of DDX3 to kill lung cancer cells.

DDX3 = target: T1, DDX3 (Homo sapiens, UniProt O00571); experiment: DDX3 helicase unwinding assay with duplex oligos; type: biochemical; conditions: 100 μM RK-33, over a period of 80 minutes
T1 construct: made in house; host or cells: pET system (Novagen); E. coli is my own knowledge of the pET system
T1 sequence (O00571 whole entry): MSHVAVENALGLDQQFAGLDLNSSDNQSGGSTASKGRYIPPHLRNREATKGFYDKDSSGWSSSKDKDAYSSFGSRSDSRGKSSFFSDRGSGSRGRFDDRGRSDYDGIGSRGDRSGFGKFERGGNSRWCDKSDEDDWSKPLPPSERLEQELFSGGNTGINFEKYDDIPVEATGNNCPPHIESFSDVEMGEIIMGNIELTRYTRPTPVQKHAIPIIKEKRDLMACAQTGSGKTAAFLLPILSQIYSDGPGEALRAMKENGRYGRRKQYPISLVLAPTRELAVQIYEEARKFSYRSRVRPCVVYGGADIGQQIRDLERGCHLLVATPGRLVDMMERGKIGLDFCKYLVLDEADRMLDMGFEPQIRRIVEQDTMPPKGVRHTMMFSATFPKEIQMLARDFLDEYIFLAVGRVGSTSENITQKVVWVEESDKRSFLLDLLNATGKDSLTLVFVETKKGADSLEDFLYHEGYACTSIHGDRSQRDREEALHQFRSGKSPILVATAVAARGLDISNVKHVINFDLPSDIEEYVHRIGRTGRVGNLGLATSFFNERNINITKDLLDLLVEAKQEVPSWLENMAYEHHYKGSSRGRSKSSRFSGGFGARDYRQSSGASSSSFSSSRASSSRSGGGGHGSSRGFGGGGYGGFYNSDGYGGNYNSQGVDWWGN
From the text: FIG. 4 is a chart showing RK-33 inhibits helicase activity of DDX3.
Generating small molecular inhibitors of DDX3 function. As loss of DDX3 function abrogated colony forming abilities along with increased expression in lung carcinoma samples, a search was initiated to identify molecules that could target a functional substrate binding site of DDX3 protein. Initial work generated a fused diimidazodiazepine ring molecule (RK-33) to target RNA helicase. To confirm the functional activity of RK-33 on DDX3, an in vitro assay was carried out to determine the effects of RK-33 on helicase activity. DDX3 protein was synthesized using the pET system from Novagen. Following DDX3 purification, the unwinding assays were performed using duplex oligos, purified DDX3 and RK-33. Quantification was done by evaluating the pixel density of the native duplex oligos and the unwound oligos.

H23 = experiment: MTS assay, lung cancer cell line H23; type: cell-based
Experimental: FIG. 5 is a plot showing the effect of RK-33 on two lung cancer cell lines. Lung cancer cell lines were incubated with different concentrations of RK-33. At day 3, MTS assays were performed to determine the percentage of metabolically active cells. The experiments were repeated in triplicate. The IC50 values for H23 and A549 are 3.5 and 5 μM respectively.
To study the effects of RK-33 on cell growth and proliferation, lung cancer cell lines (H23 and A549) were used for the initial studies. […] To the best of our knowledge, this is the first data set of evaluating the efficacy of a small molecule inhibitor of DDX3 to kill lung cancer cells.

[1] = system: Cells engineered to express a hypoxia induced red fluorescent protein (tdTomato); experiment: Cell death under hypoxic conditions (CoCl2 hypoxia mimetic); type: cell-based; conditions: CoCl2 24 hours, then RK-33 72 hours
Experimental: Cells engineered to express a hypoxia induced red fluorescent protein (tdTomato) were incubated with CoCl2 (hypoxia mimetic compound) for 24 hours, following which RK-33 was added and incubated for 72 hours. Photomicrographs were taken at 20×. Experiments were repeated twice. Effect of hypoxia on the functional activity of RK-33 to induce cell death. During solid tumor biogenesis, regions of hypoxia develop within the tumor due to inadequate and poorly formed vasculature. […] In addition, some have posited that tumor hypoxia is a major limiting factor of the curability by SABR at lower radiation dose. […] To evaluate efficacy of RK-33 to induce cell death under hypoxic conditions, cells were incubated with CoCl2 (hypoxia mimetic compound) for 24 hours, following which RK-33 was added and incubated for 72 hours.

A549 cells = experiment: Combination of RK-33 and radiation in A549 cells, Chou-Talalay analysis; type: cell-based; conditions: 4 and 6 μM RK-33 with 2 and 7 gray of radiation
Experimental: FIG. 8 is a set of bar graphs depicting the effect of radiation and RK-33 on A549 cells. […] Experiments were performed in triplicate.
Clonogenic assays. About 1×10^5 A549 cells were treated with RK-33 (1-6 μM) and to increasing dose of IR (1-20 Gy). After 24 hours, 500 cells from each combination treatment will be plated into a 6-well plate. Following incubation for 1-3 weeks, colonies were fixed in glutaraldehyde (6.0% v/v), stained with crystal violet (0.5% w/v) and counted using a stereomicroscope. Clusters of >50 cells (i.e., six cell doubling times) were scored as colonies. The amount of radiosensitization by RK-33 was determined using the Chou-Talalay equation to determine the combination index (CI). A CI 0.9-1.1 was indicative of additivity while a CI <0.9 indicated synergism. The survival curves, S, were fit to the linear-quadratic model S=exp(−αD-βD2) to determine classical parameters of radiation sensitivity.
Combinatorial effect of RK-33 and radiation in lung cancer cell line, A549. Given the current treatment protocol for lung cancer patients, which includes chemotherapy and radiation, the cell killing abilities of RK-33 was evaluated in combination with radiation in a chemotherapy/radiation resistant lung cancer cell line, A549 (FIG. 7). […] For this experiment, RK-33 below the IC50 value was used to determine if there was any additive or synergistic effect. […]

[2] = Toxicity of RK-33 in SCID mice, pathological examination after necropsy; type: in vivo
[3] = Biodistribution of RK-33 in mice by LC/MS/MS; type: in vivo; conditions: I.P. single dose of 20 mg/kg; 30 minutes, 60 minutes and 24 hours
From the text: FIG. 9 is a set of curves illustrating the biodistribution of RK-33 in mice at different time intervals using an LC/MS/MS method. A total of five mice per time point were used for this study.
Analysis of the toxicity of RK-33 in SCID mice. […] Subsequently, we carried out pharmacokinetics in multiple tissue compartments. For this a LC/MS/MS method was developed for determination of RK-33 in mouse plasma (FIG. 9-inset). Sample preparation involved acetonitrile precipitation and separation of RK-33 and the internal standard, temazepam, was achieved on a Waters Xterra column. […] The animals were injected I.P. (single dose of 20 mg/kg with five animals per arm) and the tissue harvested at different time intervals (30 minutes, 60 minutes and 24 hours) and analyzed.

lung tumors in CRT mice = experiment: RK-33 and radiation in CRT autochthonous lung tumor mice, microCT tumor volume; type: in vivo
From the text: FIG. 11 is a bar graph showing the chemosensitization of RK-33 with radiation to reduce lung tumors in CRT mice. Following RK-33 and radiation treatment, the animals were imaged using microCT (data not shown). The bar graph depicts the reduction of lung tumor volume in n=8 animals per group. The tumor volumes were quantified from the CBCT data set using the image and volume contouring utility of the Pinnacle3 Radiation Therapy Planning software v.8.1y (Philips Inc., Madison, Wis.) used in the clinic for human patients. Each CBCT data set contains full 3D volumetric data for the tumor burden estimation.
Generating the CRT mice and drug treatment. As shown in the results, the functional utility of CRT mice was validated. CRT mice are generated from combinations of bi-transgenic mice; e.g., CT X CR. CRT mice were activated shortly after weaning, four-five weeks old, by doxycycline administered in their drinking water (up to 2 mg/ml) in a total volume of 350 ml to simultaneously activate both Twist1 and KrasG12D transgenes. Fresh doxycycline containing water was administered weekly. Ten weeks post transgene induction, the mice were imaged by microCT to determine tumor load. Induction of the transgenes and imaging the tumor load by microCT were continuous (weekly) till the end of the experiment. Following induction and establishment of lung tumors, RK-33 (1 mM equivalent to 40 mg/Kg) was injected intraperitoneally in combination with radiation at schedules described in the table below. The number of animals used in each group was 25.
MicroCT procedures. Presently a small animal radiation research platform for radiation treatment of animals was developed. […]
Thoracic image-guided irradiation. […] Fifteen Gy radiation calculated at the isocenter was delivered using a single posterior field. […]
Endpoints for in vivo experiments. […] Animals following treatment are monitored daily by animal care staff and 3×/week by investigators for signs of mortality and morbidity. […]

SMILES | sensitivity of A549 cells in MTS assay (A549) | reduction of unwinding of the duplex oligos (DDX3) | effect on cell growth and proliferation (H23; H23, 8 μM RK-33) | IC50 (H23; Homo sapiens, NCI-H23, 72 h, H23, MTS at day 3) [µM] | effect on cell growth and proliferation (A549; A549, 8 μM RK-33) | IC50 (A549; Homo sapiens, 72 h, A549, MTS at day 3) [µM] | activity to induce cell death under hypoxic conditions [1] | combination effect with radiation on cell death (Chou-Talalay) (A549 cells) | pathological examination of all tissues following necropsy [2] | brain exposures [3] | target tissue concentrations [3] | tumor volume reduction, RK-33 combined with conventional fractionated radiation (lung tumors in CRT mice; 3 Gy x10) | tumor response, single agent (lung tumors in CRT mice; RK-33 1 mM i.p. 3 times a week alone, microCT) | tumor response, RK-33 combined with SABR (lung tumors in CRT mice; RK-33 1 mM i.p. 3 times a week, 1 week before and 1 week after 15 Gy whole thorax SABR, microCT and H&E)
N.N.O=C([O-])C1(C(=O)[O-])CCC1.[Pt+2] [carboplatin, reference compound] | resistant | – | – | – | – | – | – | – | – | – | – | – | – | –
COc1ccc(Cn2c3ncnc4c(ncn4Cc4ccc(OC)cc4)c-3nc2=O)cc1 [RK-33] | sensitive | at least 60% | efficiently ablate | 3.5 | efficiently ablate | 5 | retain its activity both under normoxic and hypoxic conditions | significant synergistic effect | no tissue damage | well managed | well above effective killing concentrations | no synergy | stasis or perhaps slight regression | dramatic tumor regression
